Data taken from patent US10544150B2, “NK-3 receptor selective antagonist compounds, pharmaceutical composition and methods for use in NK-3 receptors mediated disorders” (Ogeda SA, priority 2010, dated 2020).

Target: human NK-3 receptor (Homo sapiens (Human), UniProt P29371)
Experiment: 3H-SB222200 binding competition assay with human NK-3 receptor
Conditions: 3H-SB222200 displacement, CHO cell membranes expressing human NK3 receptor; read-out: Ki range
Procedure, shortened: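 Membranes from CHO cells expressing human NK3 receptor incubated with 5 nM 3H-SB222200 and test compound in HEPES 25 mM/NaCl 0.1M/CaCl2 1 mM/MgCl2 5 mM/BSA 0.5%/saponin 10 μg/ml, pH 7.4. Bound radioligand counted after filtration; Ki calculated, reported in bands (+++ <500 nM to # >5 μM).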

human NK-3 receptor, sequence (P29371 whole entry): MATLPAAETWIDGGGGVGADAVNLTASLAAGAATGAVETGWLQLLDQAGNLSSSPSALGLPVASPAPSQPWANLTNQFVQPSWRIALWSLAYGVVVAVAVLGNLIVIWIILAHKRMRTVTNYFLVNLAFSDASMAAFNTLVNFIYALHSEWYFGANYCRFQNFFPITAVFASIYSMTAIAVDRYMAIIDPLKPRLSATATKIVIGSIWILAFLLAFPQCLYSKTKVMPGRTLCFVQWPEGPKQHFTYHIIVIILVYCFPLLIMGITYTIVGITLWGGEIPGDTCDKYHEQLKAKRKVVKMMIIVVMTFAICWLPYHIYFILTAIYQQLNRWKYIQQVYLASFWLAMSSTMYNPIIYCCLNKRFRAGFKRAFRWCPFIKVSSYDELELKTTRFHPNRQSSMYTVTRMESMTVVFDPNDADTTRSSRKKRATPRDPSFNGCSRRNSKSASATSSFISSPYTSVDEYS

Ki	SMILES
< 500 nM	C[C@H]1c2nnc(-c3csc(-c4ccc(F)cc4F)n3)n2CCN1C(=O)c1ccc(-c2cccs2)cc1 [Compound 165, (S)-(3-(2-(2,4-difluorophenyl)thiazol-4-yl)-8-methyl-5,6-dihydro-[1,2,4]triazolo[4,3-a]pyrazin-7(8H)-yl)(4-(thiophen-2-yl)phenyl)methanone]
< 500 nM	CC1c2nnc(-c3csc(-c4ccccc4)n3)n2CCN1C(=O)c1ccc(F)cc1 (stereo not drawn) [Compound 166, (4-fluorophenyl)(8-methyl-3-(2-phenylthiazol-4-yl)-5,6-dihydro-[1,2,4]triazolo[4,3-a]pyrazin-7(8H)-yl)methanone]
500 to 1000 nM	C[C@H]1c2nnc(-c3csc(-c4ccccc4)n3)n2CCN1C(=O)c1ccc(F)cc1 [Compound 167, (S)-(4-fluorophenyl)(8-methyl-3-(2-phenylthiazol-4-yl)-5,6-dihydro-[1,2,4]triazolo[4,3-a]pyrazin-7(8H)-yl)methanone]
< 500 nM	C[C@H]1c2nnc(-c3nc(-c4ccc(F)cc4)no3)n2CCN1C(=O)c1ccc(-c2cccs2)cc1 [Compound 168, (S)-(3-(3-(4-fluorophenyl)-1,2,4-oxadiazol-5-yl)-8-methyl-5,6-dihydro-[1,2,4]triazolo[4,3-a]pyrazin-7(8H)-yl)(4-(thiophen-2-yl)phenyl)methanone]
< 500 nM	C[C@@H]1c2nnc(-c3nc(-c4ccc(F)cc4)no3)n2CCN1C(=O)c1ccc(-c2cccs2)cc1 [Compound 169, (R)-(3-(3-(4-fluorophenyl)-1,2,4-oxadiazol-5-yl)-8-methyl-5,6-dihydro-[1,2,4]triazolo[4,3-a]pyrazin-7(8H)-yl)(4-(thiophen-2-yl)phenyl)methanone]
< 500 nM	O=C(c1ccc(-c2cccs2)cc1)N1CCn2c(nnc2-c2csc(-c3ccc(F)cc3F)n2)C1 [Compound 170, (3-(2-(2,4-difluorophenyl)thiazol-4-yl)-5,6-dihydro-[1,2,4]triazolo[4,3-a]pyrazin-7(8H)-yl)(4-(thiophen-2-yl)phenyl)methanone]
< 500 nM	O=C(c1ccc(-c2cccs2)cc1)N1CCn2c(nnc2-c2noc(-c3ccccc3)n2)C1 [Compound 171, (3-(5-phenyl-1,2,4-oxadiazol-3-yl)-5,6-dihydro-[1,2,4]triazolo[4,3-a]pyrazin-7(8H)-yl)(4-(thiophen-2-yl)phenyl)methanone]
< 500 nM	O=C(c1ccc(F)cc1)N1CCn2c(nnc2-c2nc(-c3ccccc3)no2)C1 [Compound 172, (4-fluorophenyl)(3-(3-phenyl-1,2,4-oxadiazol-5-yl)-5,6-dihydro-[1,2,4]triazolo[4,3-a]pyrazin-7(8H)-yl)methanone]
< 500 nM	O=C(c1ccc(F)cc1)N1CCn2c(nnc2-c2noc(-c3ccccc3)n2)C1 [Compound 173, (4-fluorophenyl)(3-(5-phenyl-1,2,4-oxadiazol-3-yl)-5,6-dihydro-[1,2,4]triazolo[4,3-a]pyrazin-7(8H)-yl)methanone]
< 500 nM	O=C(c1ccc(-c2cccs2)cc1)N1CCn2c(nnc2-c2nc(-c3ccccc3)no2)C1 [Compound 174, (3-(3-phenyl-1,2,4-oxadiazol-5-yl)-5,6-dihydro-[1,2,4]triazolo[4,3-a]pyrazin-7(8H)-yl)(4-(thiophen-2-yl)phenyl)methanone]
< 500 nM	O=C(c1ccc(F)cc1)N1CCn2c(nnc2-c2nc(-c3ccc(F)cc3)no2)C1 [Compound 175, (4-fluorophenyl)(3-(3-(4-fluorophenyl)-1,2,4-oxadiazol-5-yl)-5,6-dihydro-[1,2,4]triazolo[4,3-a]pyrazin-7(8H)-yl)methanone]
< 500 nM	O=C(c1ccc(-c2cccs2)cc1)N1CCn2c(nnc2-c2nc(-c3ccc(F)cc3)no2)C1 [Compound 176, (3-(3-(4-fluorophenyl)-1,2,4-oxadiazol-5-yl)-5,6-dihydro-[1,2,4]triazolo[4,3-a]pyrazin-7(8H)-yl)(4-(thiophen-2-yl)phenyl)methanone]
< 500 nM	O=C(c1ccc(-c2cccs2)cc1)N1CCn2c(nnc2-c2nc(-c3ccc(F)cc3F)no2)C1 [Compound 177, (3-(3-(2,4-difluorophenyl)-1,2,4-oxadiazol-5-yl)-5,6-dihydro-[1,2,4]triazolo[4,3-a]pyrazin-7(8H)-yl)(4-(thiophen-2-yl)phenyl)methanone]
1000 to 5000 nM	O=C(c1ccc(F)cc1)N1CCn2c(nnc2-c2n[nH]c(-c3ccccc3)n2)C1 [Compound 178, (4-fluorophenyl)(3-(5-phenyl-1H-1,2,4-triazol-3-yl)-5,6-dihydro-[1,2,4]triazolo[4,3-a]pyrazin-7(8H)-yl)methanone]
< 500 nM	O=C(c1ccc(-c2cccs2)cc1)N1CCn2c(nnc2-c2n[nH]c(-c3ccccc3)n2)C1 [Compound 179, (3-(5-phenyl-1H-1,2,4-triazol-3-yl)-5,6-dihydro-[1,2,4]triazolo[4,3-a]pyrazin-7(8H)-yl)(4-(thiophen-2-yl)phenyl)methanone]
< 500 nM	O=C(c1ccc(F)cc1)N1CCn2c(nnc2-c2csc(-c3ccccc3F)n2)C1 [Compound 180, (4-fluorophenyl)(3-(2-(2-fluorophenyl)thiazol-4-yl)-5,6-dihydro-[1,2,4]triazolo[4,3-a]pyrazin-7(8H)-yl)methanone]
< 500 nM	O=C(c1ccc(-c2cccs2)cc1)N1CCn2c(nnc2-c2csc(-c3ccccc3F)n2)C1 [Compound 181, (3-(2-(2-fluorophenyl)thiazol-4-yl)-5,6-dihydro-[1,2,4]triazolo[4,3-a]pyrazin-7(8H)-yl)(4-(thiophen-2-yl)phenyl)methanone]
< 500 nM	O=C(c1ccc(-c2ccccc2)cc1)N1CCn2c(nnc2-c2csc(-c3ccccc3F)n2)C1 [Compound 182, [1,1′-biphenyl]-4-yl(3-(2-(2-fluorophenyl)thiazol-4-yl)-5,6-dihydro-[1,2,4]triazolo[4,3-a]pyrazin-7(8H)-yl)methanone]
< 500 nM	O=C(c1ccc(-c2ccc(F)cc2)cc1)N1CCn2c(nnc2-c2csc(-c3ccccc3F)n2)C1 [Compound 183, (4′-fluoro-[1,1′-biphenyl]-4-yl)(3-(2-(2-fluorophenyl)thiazol-4-yl)-5,6-dihydro-[1,2,4]triazolo[4,3-a]pyrazin-7(8H)-yl)methanone]
> 5000 nM	O=C(c1ccc(-c2cccs2)cc1)N1CCn2c(nnc2-c2nc(-c3ccc(F)cc3F)no2)C1 [Compound 185, (3-(3-(2,4-difluorophenyl)-1,2,4-oxadiazol-5-yl)-5,6-dihydro-[1,2,4]triazolo[4,3-a]pyrazin-7(8H)-yl)(4-(thiophen-2-yl)phenyl)methanone]
1000 to 5000 nM	O=C(c1ccc(-c2ccccc2)cc1)N1CCn2c(nnc2-c2csc(Cn3cnc(Cl)c3Cl)n2)C1 [Compound 186, [1,1′-biphenyl]-4-yl(3-(2-((4,5-dichloro-1H-imidazol-1-yl)methyl)thiazol-4-yl)-5,6-dihydro-[1,2,4]triazolo[4,3-a]pyrazin-7(8H)-yl)methanone]
1000 to 5000 nM	O=C(c1ccc(-c2ccc(F)cc2)cc1)N1CCn2c(nnc2-c2csc(Cn3cnc(Cl)c3Cl)n2)C1 [Compound 187, (3-(2-((4,5-dichloro-1H-imidazol-1-yl)methyl)thiazol-4-yl)-5,6-dihydro-[1,2,4]triazolo[4,3-a]pyrazin-7(8H)-yl)(4′-fluoro-[1,1′-biphenyl]-4-yl)methanone]
500 to 1000 nM	O=C(c1ccc(F)cc1)N1CCn2c(nnc2-c2csc(Cc3ccc(Cl)cc3)n2)C1 [Compound 188, (3-(2-(4-chlorobenzyl)thiazol-4-yl)-5,6-dihydro-[1,2,4]triazolo[4,3-a]pyrazin-7(8H)-yl)(4-fluorophenyl)methanone]
< 500 nM	Cc1ccc(-c2nc(-c3nnc4n3CCN(C(=O)c3ccc(F)cc3)C4)cs2)cc1 [Compound 190, (4-fluorophenyl)(3-(2-(p-tolyl)thiazol-4-yl)-5,6-dihydro-[1,2,4]triazolo[4,3-a]pyrazin-7(8H)-yl)methanone]
> 5000 nM	Cc1ccc(-c2nc(-c3nnc4n3CCN(C(=O)c3ccc(-c5cccs5)cc3)C4)cs2)cc1 [Compound 191, (4-(thiophen-2-yl)phenyl)(3-(2-(p-tolyl)thiazol-4-yl)-5,6-dihydro-[1,2,4]triazolo[4,3-a]pyrazin-7(8H)-yl)methanone]
< 500 nM	O=C(c1ccc(F)cc1)N1CCn2c(nnc2-c2csc(-c3cccs3)n2)C1 [Compound 193, (4-fluorophenyl)(3-(2-(thiophen-2-yl)thiazol-4-yl)-5,6-dihydro-[1,2,4]triazolo[4,3-a]pyrazin-7(8H)-yl)methanone]
< 500 nM	O=C(c1ccc(-c2cccs2)cc1)N1CCn2c(nnc2-c2csc(-c3cccs3)n2)C1 [Compound 194, (4-(thiophen-2-yl)phenyl)(3-(2-(thiophen-2-yl)thiazol-4-yl)-5,6-dihydro-[1,2,4]triazolo[4,3-a]pyrazin-7(8H)-yl)methanone]
< 500 nM	O=C(c1ccc(-c2ccccc2)cc1)N1CCn2c(nnc2-c2csc(-c3cccs3)n2)C1 [Compound 195, [1,1′-biphenyl]-4-yl(3-(2-(thiophen-2-yl)thiazol-4-yl)-5,6-dihydro-[1,2,4]triazolo[4,3-a]pyrazin-7(8H)-yl)methanone]
< 500 nM	O=C(c1ccc(-c2ccc(F)cc2)cc1)N1CCn2c(nnc2-c2csc(-c3cccs3)n2)C1 [Compound 196, (4′-fluoro-[1,1′-biphenyl]-4-yl)(3-(2-(thiophen-2-yl)thiazol-4-yl)-5,6-dihydro-[1,2,4]triazolo[4,3-a]pyrazin-7(8H)-yl)methanone]
1000 to 5000 nM	O=C(c1ccc(-c2cccs2)cc1)N1CCn2c(nnc2-c2csc(CS(=O)(=O)c3ccc(Cl)cc3)n2)C1 [Compound 198, (3-(2-(((4-chlorophenyl)sulfonyl)methyl)thiazol-4-yl)-5,6-dihydro-[1,2,4]triazolo[4,3-a]pyrazin-7(8H)-yl)(4-(thiophen-2-yl)phenyl)methanone]
